Drawing on patent US20230167118A1, “DEGRADATION OF BRUTON'S TYROSINE KINASE (BTK) BY CONJUGATION OF BTK INIDBITORS WITH E3 LIGASE LIGAND AND METHODS OF USE” (BEIGENE, LTD., priority 2020, published 2023), this text covers DC50 and IC50 for 15 compounds.

A value given as a limit tells only on which side of the number the result lay.

The target in one assay is T1, BTK (Homo sapiens, UniProt Q06187).
T1 construct: High control=Cell group with added DMSO and without compound, indicating microplate readings without BTK degradation; endogenous in cells; host or cells: TMD-8 cells
The experiment in a line: Cell Degradation: BTK degradation in TMD-8 cells, HTRF assay. The format is cell-based. The settings on record: 6 h treatment, IC50 (DC50) of BTK degradation. Summed up: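 BTK levels read by HTRF (665 vs 620 nm) in lysates of TMD-8 cells after 6 h compound exposure (eight doses, 6-fold steps, 0.2% DMSO). Percent degradation relative to controls; four-parameter curve fitting gave DC50, with Dmax the top degradation.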
On the technique in general: In TR-FRET formats the signal depends on donor and acceptor labels being close together.

For the next assay, the system named is HEK-293 cells. Description: HEK-293 Cytotoxicity Assay (CellTiter-Glo). The assay is classed as cell-based. The note with it: Homo sapiens, HEK293, 72 h incubation, CellTiter-Glo luminescence. Summed up:
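Four-parameter fit of % inhibition gives IC50, from CellTiter-Glo luminescent viability read-out. Cells exposed for 72 h to an 8-point, 4-fold series at 0.2% DMSO.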
On the technique in general: In ATP-based viability assays light output follows the ATP content of the culture.

T1 sequence (Q06187 whole entry): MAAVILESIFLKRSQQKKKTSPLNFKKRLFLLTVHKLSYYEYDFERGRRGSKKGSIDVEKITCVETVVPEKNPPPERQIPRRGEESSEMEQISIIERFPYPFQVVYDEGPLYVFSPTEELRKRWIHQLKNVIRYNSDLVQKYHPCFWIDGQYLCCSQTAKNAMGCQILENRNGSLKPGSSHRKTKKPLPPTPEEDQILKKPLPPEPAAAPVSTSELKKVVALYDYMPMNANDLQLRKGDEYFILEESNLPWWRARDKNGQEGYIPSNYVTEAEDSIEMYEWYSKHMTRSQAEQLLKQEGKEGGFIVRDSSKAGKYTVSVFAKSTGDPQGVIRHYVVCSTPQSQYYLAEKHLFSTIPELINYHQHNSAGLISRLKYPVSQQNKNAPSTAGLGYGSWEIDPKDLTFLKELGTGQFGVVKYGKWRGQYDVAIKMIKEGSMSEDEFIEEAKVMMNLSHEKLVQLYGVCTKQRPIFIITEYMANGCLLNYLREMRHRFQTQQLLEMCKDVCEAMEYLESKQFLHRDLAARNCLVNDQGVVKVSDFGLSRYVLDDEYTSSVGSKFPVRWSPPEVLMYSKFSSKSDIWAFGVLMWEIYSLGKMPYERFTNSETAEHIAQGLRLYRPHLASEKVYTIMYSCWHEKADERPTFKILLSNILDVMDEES

Usually DC50 stands for the concentration at which degradation of the target reaches its halfway point. Low readings indicate a more potent degrader, high ones a less potent degrader. A word on the IC50: it is the concentration that inhibits the measured activity by half. The low end stands for greater potency, the high end for weaker potency. For the compound `Cc1cc(-c2ncnc3[nH]c(-c4ccc(N5CCN(C6CC(c7ccc(C8CCC(=O)NC8=O)cc7)C6)CC5)cc4)cc23)ccc1[C@@H](C)NC(=O)c1nc(C(C)(C)C)no1` (stereo partly drawn) [Example 153, 3-(tert-butyl)-N-((1R)-1-(4-(6-(4-(4-(3-(4-(2,6-dioxopiperidin-3-yl)phenyl)cyclobutyl)piperazin-1-yl)phenyl)-7H-pyrrolo[2,3-d]pyrimidin-4-yl)-2-methylphenyl)ethyl)-1,2,4-oxadiazole-5-carboxamide], at BTK, the DC50 turned out to be 2.02 nM. The same compound yielded a half-inhibitory concentration (IC50) with HEK-293 cells of 9580 nM.

`C[C@@H](NC(=O)c1nc(C(C)(C)C)no1)c1ccc(-c2ncnc3[nH]c(-c4ccc(N5CCN(CC6CCN(c7ccc(N8CCC(=O)NC8=O)cc7)CC6)CC5)cn4)cc23)cc1F` [Example 154, (R)-3-(tert-butyl)-N-(1-(4-(6-(5-(4-((1-(4-(2,4-dioxotetrahydropyrimidin-1(2H)-yl)phenyl)piperidin-4-yl)methyl)piperazin-1-yl)pyridin-2-yl)-7H-pyrrolo[2,3-d]pyrimidin-4-yl)-2-fluorophenyl)ethyl)-1,2,4-oxadiazole-5-carboxamide] displayed a DC50 at BTK of 0.79 nM. Besides, the IC50 in the assay on HEK-293 cells is greater than 10000 nM.

Take `CC(C)(C)c1nc(C(=O)N[C@@H]2CCc3cc(-c4ncnc5[nH]c(-c6ccc(N7CCN(CC8CCN(c9ccc(N%10CCC(=O)NC%10=O)cc9)CC8)CC7)cc6)cc45)ccc32)no1` [Example 156, (R)-5-(tert-butyl)-N-(5-(6-(4-(4-((1-(4-(2,4-dioxotetrahydropyrimidin-1(2H)-yl)phenyl)piperidin-4-yl)methyl)piperazin-1-yl)phenyl)-7H-pyrrolo[2,3-d]pyrimidin-4-yl)-2,3-dihydro-1H-inden-1-yl)-1,2,4-oxadiazole-3-carboxamide]: at BTK, half-maximal degradation (DC50) was put at 2.43 nM. In the assay with HEK-293 cells, this compound had a 50% inhibitory concentration (IC50) greater than 10000 nM.

`Cc1cc(-c2ncnc3[nH]c(-c4ccc(C5CN(CC6CCN(c7ccc(N8CCC(=O)NC8=O)cc7)CC6)C5)cc4)cc23)ccc1[C@@H](C)NC(=O)c1nc(C(C)(C)C)no1` [Example 157, (R)-3-(tert-butyl)-N-(1-(4-(6-(4-(1-((1-(4-(2,4-dioxotetrahydropyrimidin-1(2H)-yl)phenyl)piperidin-4-yl)methyl)azetidin-3-yl)phenyl)-7H-pyrrolo[2,3-d]pyrimidin-4-yl)-2-methylphenyl)ethyl)-1,2,4-oxadiazole-5-carboxamide] displayed a DC50 at BTK of 1.04 nM. The IC50 in the assay on HEK-293 cells was greater than 10000 nM.

In turn, `Cc1cc(-c2ncnc3[nH]c(-c4ccc(C5CCN(CC6CCN(c7ccc(N8CCC(=O)NC8=O)cc7)CC6)C5)cc4)cc23)ccc1[C@@H](C)NC(=O)c1nc(C(C)(C)C)no1` (stereo partly drawn) [Example 158, 3-(tert-butyl)-N-((1R)-1-(4-(6-(4-(1-((1-(4-(2,4-dioxotetrahydropyrimidin-1(2H)-yl)phenyl)piperidin-4-yl)methyl)pyrrolidin-3-yl)phenyl)-7H-pyrrolo[2,3-d]pyrimidin-4-yl)-2-methylphenyl)ethyl)-1,2,4-oxadiazole-5-carboxamide] displayed a DC50 at BTK of 1.12 nM. Half-maximal inhibition with HEK-293 cells (IC50) required 4040 nM.

`Cc1cc(-c2ncnc3[nH]c(-c4ccc(C5=CCN(CC6CCN(c7ccc(N8CCC(=O)NC8=O)cc7)CC6)C5)nc4)cc23)ccc1[C@@H](C)NC(=O)c1nc(C(C)(C)C)no1` [Example 159, (R)-3-(tert-butyl)-N-(1-(4-(6-(6-(1-((1-(4-(2,4-dioxotetrahydropyrimidin-1(2H)-yl)phenyl)piperidin-4-yl)methyl)-2,5-dihydro-1H-pyrrol-3-yl)pyridin-3-yl)-7H-pyrrolo[2,3-d]pyrimidin-4-yl)-2-methylphenyl)ethyl)-1,2,4-oxadiazole-5-carboxamide] came in with a DC50 on BTK of 0.93 nM. Further, the IC50 with HEK-293 cells is greater than 10000 nM.

For `Cc1cc(-c2ncnc3[nH]c(-c4cnc(N5CCN(CC6CCN(c7ccc(N8CCC(=O)NC8=O)cc7)CC6)CC5)nc4)cc23)ccc1[C@@H](C)NC(=O)c1nc(C(C)(C)C)no1` [Example 160, (R)-3-(tert-butyl)-N-(1-(4-(6-(2-(4-((1-(4-(2,4-dioxotetrahydropyrimidin-1(2H)-yl)phenyl)piperidin-4-yl)methyl)piperazin-1-yl)pyrimidin-5-yl)-7H-pyrrolo[2,3-d]pyrimidin-4-yl)-2-methylphenyl)ethyl)-1,2,4-oxadiazole-5-carboxamide], at BTK, the 50% degradation concentration (DC50) was found to be 1.25 nM. Moreover, the IC50 in the assay on HEK-293 cells is greater than 10000 nM.

Take `Cc1cc(-c2ncnc3[nH]c(-c4c(C)nn(C5CCN(C(=O)CNCC6CCN(c7ccc(N8CCC(=O)NC8=O)cc7)CC6)CC5)c4C)cc23)ccc1[C@@H](C)NC(=O)c1nc(C(C)(C)C)no1` [Example 161, (R)-3-(tert-butyl)-N-(1-(4-(6-(1-(1-(((1-(4-(2,4-dioxotetrahydropyrimidin-1(2H)-yl)phenyl)piperidin-4-yl)methyl)glycyl)piperidin-4-yl)-3,5-dimethyl-1H-pyrazol-4-yl)-7H-pyrrolo[2,3-d]pyrimidin-4-yl)-2-methylphenyl)ethyl)-1,2,4-oxadiazole-5-carboxamide]: half-maximal degradation at BTK (DC50) was put at 0.92 nM. The IC50 in the assay on HEK-293 cells stood at 3550 nM.

`Cc1cc(-c2ncnc3[nH]c(-c4ccc(C5CCN(CC6CCN(c7ccc(N8CCC(=O)NC8=O)cc7)CC6)C5)nc4)cc23)ccc1[C@@H](C)NC(=O)c1nc(C(C)(C)C)no1` (stereo partly drawn) [Example 162, 3-(tert-butyl)-N-((1R)-1-(4-(6-(6-(1-((1-(4-(2,4-dioxotetrahydropyrimidin-1(2H)-yl)phenyl)piperidin-4-yl)methyl)pyrrolidin-3-yl)pyridin-3-yl)-7H-pyrrolo[2,3-d]pyrimidin-4-yl)-2-methylphenyl)ethyl)-1,2,4-oxadiazole-5-carboxamide]: it took 1.6 nM to reach half-maximal degradation at BTK (DC50). For the same compound, in the assay with HEK-293 cells, the IC50 is greater than 10000 nM.

The compound `Cc1cc(-c2ncnc3[nH]c(-c4c(C)nn(C5CCN(CC6CCN(c7ccc(N8CCC(=O)NC8=O)cc7)CC6)C5)c4C)cc23)ccc1[C@@H](C)NC(=O)c1nc(C(C)(C)C)no1` (stereo partly drawn) [Example 163, 3-(tert-butyl)-N-((1R)-1-(4-(6-(1-(1-((1-(4-(2,4-dioxotetrahydropyrimidin-1(2H)-yl)phenyl)piperidin-4-yl)methyl)pyrrolidin-3-yl)-3,5-dimethyl-1H-pyrazol-4-yl)-7H-pyrrolo[2,3-d]pyrimidin-4-yl)-2-methylphenyl)ethyl)-1,2,4-oxadiazole-5-carboxamide] yielded a DC50 at BTK of 1.32 nM. Moreover, the IC50 with HEK-293 cells was greater than 10000 nM.

On to `Cc1cc(-c2ncnc3[nH]c(-c4ccc(N5CC6(CN(CC7CCN(c8ccc(N9CCC(=O)NC9=O)cc8)CC7)C6)C5)cc4)cc23)ccc1[C@@H](C)NC(=O)c1nc(C(C)(C)C)no1` [Example 164, (R)-3-(tert-butyl)-N-(1-(4-(6-(4-(6-((1-(4-(2,4-dioxotetrahydropyrimidin-1(2H)-yl)phenyl)piperidin-4-yl)methyl)-2,6-diazaspiro[3.3]heptan-2-yl)phenyl)-7H-pyrrolo[2,3-d]pyrimidin-4-yl)-2-methylphenyl)ethyl)-1,2,4-oxadiazole-5-carboxamide], for which, at BTK, half-maximal degradation (DC50) was put at 1.26 nM. Besides, the IC50 in the assay on HEK-293 cells was greater than 10000 nM.

On BTK, `Cc1cc(-c2ncnc3[nH]c(-c4ccc(N5CCN(CC6CCN(c7ccc(N8CCC(=O)NC8=O)cc7)CC6)CC5)cn4)cc23)ccc1[C@@H](C)NC(=O)c1nc(C2(C)CC2)no1` [Example 165, (R)-N-(1-(4-(6-(5-(4-((1-(4-(2,4-dioxotetrahydropyrimidin-1(2H)-yl)phenyl)piperidin-4-yl)methyl)piperazin-1-yl)pyridin-2-yl)-7H-pyrrolo[2,3-d]pyrimidin-4-yl)-2-methylphenyl)ethyl)-3-(1-methylcyclopropyl)-1,2,4-oxadiazole-5-carboxamide] had a DC50 of 0.69 nM. Further, the half-maximal inhibitory concentration (IC50) in the assay with HEK-293 cells was greater than 10000 nM.

In turn, `Cc1cc(-c2ncnc3[nH]c(-c4ccc(N5CCN(CC6CCN(c7ccc(N8CCC(=O)NC8=O)cc7)CC6)CC5)nc4)cc23)ccc1[C@@H](C)NC(=O)c1nc(C2(C)CC2)no1` [Example 166, (R)-N-(1-(4-(6-(6-(4-((1-(4-(2,4-dioxotetrahydropyrimidin-1(2H)-yl)phenyl)piperidin-4-yl)methyl)piperazin-1-yl)pyridin-3-yl)-7H-pyrrolo[2,3-d]pyrimidin-4-yl)-2-methylphenyl)ethyl)-3-(1-methylcyclopropyl)-1,2,4-oxadiazole-5-carboxamide] registered a DC50 at BTK of 1.61 nM. For the same compound, in the assay on HEK-293 cells, the IC50 was greater than 10000 nM.

`Cc1cc(-c2ncnc3[nH]c(-c4ccc(N5CCCN(CC6CCN(c7ccc(N8CCC(=O)NC8=O)cc7)CC6)CC5)cc4)cc23)ccc1[C@@H](C)NC(=O)c1nc(C(C)(C)C)no1` [Example 167, (R)-3-(tert-butyl)-N-(1-(4-(6-(4-(4-((1-(4-(2,4-dioxotetrahydropyrimidin-1(2H)-yl)phenyl)piperidin-4-yl)methyl)-1,4-diazepan-1-yl)phenyl)-7H-pyrrolo[2,3-d]pyrimidin-4-yl)-2-methylphenyl)ethyl)-1,2,4-oxadiazole-5-carboxamide] came in with a DC50 on BTK of 2.61 nM. In the assay with HEK-293 cells, this compound displayed a half-maximal inhibitory concentration (IC50) greater than 10000 nM.

As for `Cc1cc(-c2ncnc3[nH]c(-c4cnc(N5CCN(CC6CCN(c7ccc(N8CCC(=O)NC8=O)cc7)CC6)CC5)s4)cc23)ccc1[C@@H](C)NC(=O)c1nc(C(C)(C)C)no1` [Example 168, (R)-3-(tert-butyl)-N-(1-(4-(6-(2-(4-((1-(4-(2,4-dioxotetrahydropyrimidin-1(2H)-yl)phenyl)piperidin-4-yl)methyl)piperazin-1-yl)thiazol-5-yl)-7H-pyrrolo[2,3-d]pyrimidin-4-yl)-2-methylphenyl)ethyl)-1,2,4-oxadiazole-5-carboxamide], the DC50 at BTK worked out at 0.75 nM. The IC50 with HEK-293 cells is greater than 10000 nM.
